Experimental findings from patent publication US6689773B2, “Uracil substituted phenyl sulfamoyl carboxamides” (BASF Aktiengesellschaft, priority 2000, dated 2004) are described below.

Structures are written as SMILES.

In one assay the test system is potato plants. Description: Field trials of preharvest desiccant activity (Example 151). In kind it is in vivo, Potatoes. Conditions: EC formulation 120 grams a.i./liter applied to foliage a few weeks before harvest. As to the method:
Field evaluations of preharvest desiccant activity were performed at several different locations using compound Ia.86. In each experiment treatments was replicated three times in a randomized complete block experimental design. Potatoes were grown using good agronomic practices of each area. Treatments were applied a few weeks before planned potato harvest. The test compound was formulated as an emulsifiable concentrate (EC) formulation with 120 grams a.i./liter. The formulation was diluted with water, spray adjuvants were added, and the treatment solution was applied to the foliage of potatoes in from 187 to 600 l/ha of total spray volume. Unless indicated otherwise, the treatments also contained […] of methylated seed oil adjuvant (Hasten or SUN-IT II. In the case of split applications, the second application was made about 1 week after the initial application. At various intervals after treatment, desiccation of stems and leaves was evaluated separately, on a visual % desiccation scale. In each test the test compound was compared to appropriate commercial standards at the normal rate for each standard for the area.

Assay [1] deals with Amaranthus retroflexus (AMARE), Redroot pigweed. Description: Greenhouse post-emergence herbicidal action (Example 149). It counts as in vivo. Conditions: 15.6 or 7.8 g/ha of a.i. As to the method:
(§1) The culture containers used were plastic flowerpots containing loamy sand with approximately 3.0% of humus as substrate. The seeds of the test plants were sown separately for each species.
(§2) For the post-emergence treatment, the test plants were grown to a plant height of from 3 to 15 cm, depending on the plant habit, and only then treated with the active ingredients which had been suspended or emulsified in water. To this end, the test plants were either sown directly and grown in the same containers, or they were first grown separately as seedlings and transplanted into the test containers a few days prior to treatment. The rate of application for the post-emergence treatment was 15.6 or 7.8 g/ha active ingredient.
(§3) Depending on the species, the plants were kept at from 10-25° C. and 20-35° C., respectively. The test period extended over 2 to 4 weeks. During this time, the plants were tended, and their response to the individual treatments was evaluated.
(§4) Evaluation was carried out using a scale of from 0 to 100. 100 means no emergence of the plants, or complete destruction of at least the aerial parts, and 0 means no damage or normal course of growth.
(§5) The plants used in the greenhouse experiments belonged to the following species: […]

The test system of assay [2] is Polygonum persicaria (POLPE), redshank; ladysthumb. The description is as above. Conditions: 15.6 or 7.8 g/ha of a.i. It counts as in vivo. On the procedure: as §1, §2, §3, §4, §5
Assay [3] concerns Pharbitis purpurea (PHBPU), common or tall morningglory. The description is as above. In kind it is in vivo. The conditions noted are these: 15.6 or 7.8 g/ha of a.i. As to the method: as §1, §2, §3, §4, §5

Take `CC(C)N(C)S(=O)(=O)NC(=O)c1cc(-n2c(=O)cc(C(F)(F)F)n(C)c2=O)c(F)cc1Cl` [Ia.86]: in the assay on potato plants, the “desiccation of the leaves and stems of potato plants” value is “very effective”.
Consider `CC(C)N(C)S(=O)(=O)NC(=O)c1cc(-c2ncc(C(F)(F)F)cc2Cl)c(F)cc1Cl` [Iy.86, N′-[[2-Chloro-5-[3-chloro-5-(trifluoromethyl)-2-pyridinyl]-4-fluorobenzoyl]]-N-isopropyl-N-methylsulfamide], for which the herbicidal action entry in assay [1], in assay [2] and in assay [3] was “very good herbicial action” throughout.
